Measured values taken from patent US7238374B2, “Process and substances for the release of a growth-regulating factor from endothelial cells” (priority 1998, dated 2007).

Assays:
[1] = Partition between octanol and aqueous phosphate buffer pH 7; assay type: physicochemical
Procedure: Cells in a culture medium can be viewed as a two-phase system consisting of water and lipids. The distribution of the alkaloids in cell cultures and in mixtures of octanol and water was studied. […] The alkaloids were partitioned between equal volumes of octanol and aqueous phosphate buffer pH 7 (0.01 M) at 20° C. The concentrations c of the alkaloids were determined by HPLC analysis and the coefficients of distribution [formula] were calculated.

[2] = Equilibria of isomers in an octanol-water two-phase system; assay type: physicochemical; conditions: octanol-water system (1:1) with mitraphylline and isomitraphylline, approximately pH 5
Source text: As expected the equilibrium of isomers in a two-phase system (1aq ? 1org, 2aq ? 2org, FIG. 3) depends not only on the pH value of the aqueous phase but also on the amount and nature of the organic phase, For an example, the equilibria of mitraphylline and isomitraphylline in an octanol-water system (1:1) at pH values from 3 to 7 are shown (FIG. 4). It can be seen that in the pH range from 4 to 7 isomitraphylline is predominant in the octanol phase, with a maximum of 94 mol-% at approximately pH 5. However, below pH 3 mitraphylline begins to prevail in the aqueous phase. At no pH value is isomitraphylline produced in the aqueous phase to a reasonable extent. Therefore, the distribution of the isomers in a 2-phase system is clearly different compared to the situation in a purely aqueous solution.

[3] = stimulant IMM-2418 (1.1 μM)
Procedure: A RPMI-1640 culture medium (Sigma-Aldrich Company, St. Louis, USA) completed with 10% by volume fetal calf serum, 2 mM glutamin, 50 units/ml penicillin G, and 50 μg/ml streptomycin was used.

[4] = octanol / aqueous phosphate buffer pH 7 (0.01 M), equal volumes, 20° C.

SMILES | log KO/W (common logarithm of the partition coefficient) ([1]; pH 7) | log KO/W (common logarithm of the partition coefficient) [1, 4] | also measured
COC(=O)C1=CO[C@@H](C)[C@H]2CN3CC[C@@]4(C(=O)Nc5ccccc54)[C@@H]3C[C@H]12 [Isomitraphylline] | 2.8 | – | equilibrium concentration in the octanol phase, maximum [2]: 94 mol-%
COC(=O)C1=CO[C@@H](C)[C@@H]2CN3CC[C@@]4(C(=O)Nc5ccccc54)[C@@H]3C[C@H]12 [Isopteropodine] | 3.2 | – | –
CC[C@H]1CN2CC[C@@]3(C(=O)Nc4ccccc43)[C@@H]2C[C@@H]1/C(=C\OC)C(=O)OC [Isorhynchophylline] | – | 3.1 | alkaloid concentration in RPMI-1640 nutrient medium, 7 Days [3]: 0.27 mg/L; alkaloid concentration in RPMI-1640 nutrient medium, Start [3]: 0.27 mg/L
COC(=O)C1=CO[C@@H](C)[C@H]2CN3CC[C@]4(C(=O)Nc5ccccc54)[C@@H]3C[C@H]12 [Mitraphylline] | 2.5 | – | –
COC(=O)C1=CO[C@@H](C)[C@@H]2CN3CC[C@]4(C(=O)Nc5ccccc54)[C@@H]3C[C@H]12 [Pteropodine] | 2.9 | – | –
CC[C@H]1CN2CC[C@]3(C(=O)Nc4ccccc43)[C@@H]2C[C@@H]1/C(=C\OC)C(=O)OC [Rhynchophylline] | – | 2.7 | alkaloid concentration in RPMI-1640 nutrient medium, 7 Days [3]: 0.13 mg/L; alkaloid concentration in RPMI-1640 nutrient medium, Start [3]: 0.15 mg/L
COC(=O)C1=CO[C@@H](C)[C@@H]2CN3CC[C@@]4(C(=O)Nc5ccccc54)[C@H]3C[C@H]12 [Speciophylline] | 1.4 | – | –
COC(=O)C1=CO[C@@H](C)[C@@H]2CN3CC[C@]4(C(=O)Nc5ccccc54)[C@H]3C[C@H]12 [Uncarine F] | – | 3.1 | –
